This note sets out measurements from patent US8093259B2, “4-methyl-3-[[4-(3-pyridinyl)-2-pyrimidinyl]amino]-N-[5-(4-methyl-1H-imidazol-1-yl)-3-(trifluoromethyl)phenyl]-benzamide for treatment of melanoma” (Novartis AG, priority 2006, dated 2012).

Where two headings read alike, the source gives them in different places.

One data set concerns the target T1, EphB4 (Homo sapiens, UniProt P54760).
T1 sequence (P54760 16-987): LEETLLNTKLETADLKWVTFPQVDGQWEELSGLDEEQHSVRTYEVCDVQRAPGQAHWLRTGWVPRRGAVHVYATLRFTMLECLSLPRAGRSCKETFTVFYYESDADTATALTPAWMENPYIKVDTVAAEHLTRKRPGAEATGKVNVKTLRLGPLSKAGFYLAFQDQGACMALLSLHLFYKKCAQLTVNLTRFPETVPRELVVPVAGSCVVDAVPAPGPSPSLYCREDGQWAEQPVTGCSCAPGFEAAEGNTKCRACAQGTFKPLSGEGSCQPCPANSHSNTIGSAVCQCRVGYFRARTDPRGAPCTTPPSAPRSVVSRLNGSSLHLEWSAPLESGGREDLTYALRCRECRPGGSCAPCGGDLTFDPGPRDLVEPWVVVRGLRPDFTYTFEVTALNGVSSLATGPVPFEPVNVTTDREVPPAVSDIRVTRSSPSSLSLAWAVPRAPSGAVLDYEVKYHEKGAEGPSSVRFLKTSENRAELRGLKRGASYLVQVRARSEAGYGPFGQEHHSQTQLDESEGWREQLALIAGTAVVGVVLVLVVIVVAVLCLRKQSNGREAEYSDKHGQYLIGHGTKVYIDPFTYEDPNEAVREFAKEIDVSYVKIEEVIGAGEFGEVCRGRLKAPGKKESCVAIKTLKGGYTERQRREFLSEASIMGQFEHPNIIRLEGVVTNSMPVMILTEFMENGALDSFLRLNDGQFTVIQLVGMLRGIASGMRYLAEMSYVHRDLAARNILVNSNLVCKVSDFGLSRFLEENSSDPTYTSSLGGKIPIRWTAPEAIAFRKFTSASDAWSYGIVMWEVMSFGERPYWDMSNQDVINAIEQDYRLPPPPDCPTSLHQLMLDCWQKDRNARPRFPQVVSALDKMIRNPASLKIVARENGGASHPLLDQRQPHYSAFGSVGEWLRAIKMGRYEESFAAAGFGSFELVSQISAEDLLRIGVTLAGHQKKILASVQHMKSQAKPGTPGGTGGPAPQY
The data set can be described thus: Cell capture ELISA of EphB4 phosphorylation in stably transfected A375 melanoma cells stimulated with ephrinB2. In kind it is cell-based. To be noted: two independent experiments.

The next data set deals with T2, murine EphB4 kinase (Mus musculus, UniProt P54761).
T2 construct: from tissue; host or cells: mouse lung tissue
T2 sequence (P54761 16-987): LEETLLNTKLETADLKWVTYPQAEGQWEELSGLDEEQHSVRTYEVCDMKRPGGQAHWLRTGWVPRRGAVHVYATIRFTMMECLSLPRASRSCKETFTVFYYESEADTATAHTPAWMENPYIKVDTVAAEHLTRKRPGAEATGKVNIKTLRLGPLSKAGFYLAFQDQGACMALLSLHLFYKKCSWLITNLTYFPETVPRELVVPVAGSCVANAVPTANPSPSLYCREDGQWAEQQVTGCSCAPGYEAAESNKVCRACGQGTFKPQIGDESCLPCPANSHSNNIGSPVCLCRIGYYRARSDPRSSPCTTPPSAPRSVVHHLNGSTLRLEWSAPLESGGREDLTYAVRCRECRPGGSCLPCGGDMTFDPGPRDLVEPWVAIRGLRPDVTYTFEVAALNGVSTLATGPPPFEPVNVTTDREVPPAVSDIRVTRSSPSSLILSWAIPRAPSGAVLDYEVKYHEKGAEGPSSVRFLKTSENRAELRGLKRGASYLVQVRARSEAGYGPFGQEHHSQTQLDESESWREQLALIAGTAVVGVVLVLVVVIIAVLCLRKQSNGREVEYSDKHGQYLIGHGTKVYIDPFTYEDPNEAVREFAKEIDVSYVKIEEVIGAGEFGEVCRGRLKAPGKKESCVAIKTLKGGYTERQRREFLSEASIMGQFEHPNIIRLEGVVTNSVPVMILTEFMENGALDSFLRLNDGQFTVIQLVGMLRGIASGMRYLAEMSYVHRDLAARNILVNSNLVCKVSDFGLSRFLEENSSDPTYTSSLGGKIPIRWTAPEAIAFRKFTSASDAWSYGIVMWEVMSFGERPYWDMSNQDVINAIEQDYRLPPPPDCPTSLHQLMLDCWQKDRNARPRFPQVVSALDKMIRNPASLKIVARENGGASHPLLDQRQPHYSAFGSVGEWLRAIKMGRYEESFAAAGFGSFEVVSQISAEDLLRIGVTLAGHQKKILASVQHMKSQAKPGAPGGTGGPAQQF
The data set can be described thus: EphB4 phosphorylation in lung tissue of mice (anti-pY Western blot of immunoprecipitates). It counts as in vivo. To be noted: naïve mice, 50 mg/kg p.o. How it is done: (§1) Plasma and lung samples were collected. Lung samples were split into two parts, one lobe was further processed for pharmacokinetic analysis, the other lobe was processed for analysis of phosphorylated EphB4 receptor. For controls, one group of animals was treated for 2 h with NMP (10%) PEG (90%).

For data set [1] the following is noted: mouse, in vivo, po, 50 mg/kg. The protocol:
as §1

Turning to `Cc1cn(-c2cc(NC(=O)c3ccc(C)c(Nc4nccc(-c5cccnc5)n4)c3)cc(C(F)(F)F)c2)cn1` [4-Methyl-3-[[4-(3-pyridinyl)-2-pyrimidinyl]amino]-N-[5-(4-methyl-1H-imidazol-1-yl)-3-(trifluoromethyl)phenyl] benzamide], at EphB4, the “Inhibition of EphB4 phosphorylation” value was “dose dependently inhibited EphB4 phosphorylation”. In addition, the “Phosphorylation of EphB4 in lung tissue” value is listed as “nearly abolished” at murine EphB4 kinase (2 h after administration) and “recovers to control levels” on murine EphB4 kinase (24 h after administration). The “Effect on EphB4 protein levels in lung tissue” value on murine EphB4 kinase (both time points (2 h and 24 h)) is given as “No effect”. Moreover, the “Compound level in lung tissue” value in data set [1] (2 h) is 40 to 50 nmol/g; in data set [1] (24 h) it was 0.7 nmol/g.
